Laboratory results as given in patent US10406157B2, “Tetrahydropyridopyrazine modulators of GPR6” (Takeda Pharmaceutical Company Limited, priority 2017, dated 2019).

What was measured:
[1] = target: GPR6 receptor expressed in CHO-K1 cells (Homo sapiens (Human), UniProt P46095); test: In vitro inhibition of constitutive cAMP activity of GPR6 receptor (EC50); type: cell-based; settings: CHO-K1 cells expressing GPR6
Procedure: This cell-based assay measures the ability of test compounds to inhibit the constitutive cAMP activity of GPR6 receptor expressed in CHO-K1 cells. CHO cells are stably expressed with GPR6 receptor, whose expression is controlled by a tetracycline inducible element. The cells were cultured in medium containing F12K, 10% FBS, 1% Penn/Strep, 200 μg/mL Hygromycin. GPR6 receptor expression is induced for 20 hours with 2 μg/mL doxycycline (Sigma D9891) in growth media. After addition of doxycycline, the cells are plated at a density of 450-750 cells per well in 96-well half-volume black tissue culture plates (Costar) and placed in an incubator (37° C., 5% CO2) for 20 hours prior to cAMP assays.
Culture media is removed from the cells and they are washed with 50 μL/well of Ringer's Buffer (MgCl2 0.047 mg/mL, NaH2PO4 0.18 mg/mL, Na2HPO4 0.1 mg/mL, KCl 0.34 mg/mL, NaHCO31.26 mg/mL, D-glucose 1.8 mg/mL, NaCl 7 mg/mL; pH=7.4). The test compounds are suspended in DMSO, diluted in Ringer's Buffer containing 0.5% fatty acid free BSA plus 300 μM 3-isobutyl-1-methylxanthine (IBMX), and incubated on the cells for 45 minutes at 37° C. and 5% CO2. […] Then ULIGHT™-anti-cAMP solution from the LANCE® kit is added and incubated on a shaker at room temperature for 1 hour prior to homogeneous time resolved fluorescence (HTRF) detection in a PerkinElmer EnVision plate reader. […]

human GPR6 = human GPR6 (Homo sapiens (Human), UniProt P46095); settings: membranes from CHO-K1 cells expressing human GPR6, 3H radioligand
Sequence of human GPR6 (P46095 whole entry): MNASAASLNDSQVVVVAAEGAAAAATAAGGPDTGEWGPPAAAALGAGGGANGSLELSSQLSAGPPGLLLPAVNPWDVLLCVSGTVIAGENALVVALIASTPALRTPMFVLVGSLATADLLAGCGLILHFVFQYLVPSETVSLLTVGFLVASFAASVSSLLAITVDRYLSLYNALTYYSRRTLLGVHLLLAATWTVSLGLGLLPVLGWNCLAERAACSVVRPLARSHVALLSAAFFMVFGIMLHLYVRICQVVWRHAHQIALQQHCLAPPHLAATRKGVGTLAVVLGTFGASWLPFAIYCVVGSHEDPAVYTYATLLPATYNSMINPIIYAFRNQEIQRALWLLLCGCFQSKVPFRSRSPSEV
Procedure: A competition binding assay using a filtration-based format is used to study the binding characteristics of GPR6 inverse agonists. The method employs membranes prepared from CHO-K1 cells expressing human GPR6 cDNA driven by a doxycycline inducible promoter. Assay ready 96 well plates (651201, Greiner, USA) containing serial dilutions of test compounds (1 μL of test ligand/well) are prepared in DMSO using liquid handlers (5 μM, final assay top concentration). Assay buffer (50 mM Tris, pH 7.4, 50 mM NaCl, 6 mM MgCl2, fatty acid free 0.1% BSA, 1:100 proteinase inhibitor cocktail, Sigma USA) is added (39 μL/well) and the plates are mixed on a plate shaker for 10 minutes. GPR6-specific ^3H radioligand is prepared in assay buffer and is added to each well (40 μL, 2.4 nM final assay concentration).
To initiate the binding reactions, 40 μL of total membranes obtained from cells expressing human GPR6 receptors is added. The membranes are prepared in assay buffer and added per well to 15 μg/well final assay concentration. […] Scintillator sheet (1450-411, PerkinElmer, USA) is melted on filters and heat-sealed before CPM/well were quantified in MICROBETA® Trilux instrument (PerkinElmer, USA). […] The IC50 and Ki values are calculated using non-linear regression analysis in Prism (GraphPad, USA). Kd values are determined in standard radioligand saturation experiments.

human hERG = human hERG (Homo sapiens (Human), UniProt Q12809); test: Inhibition of human hERG via automated whole cell patch clamp; type: cell-based; settings: for IC50: CHO-K1 cells transfected with human hERG cDNA, patch clamp; for safety margin relative to inhibition of hERG: statement in words
Sequence of human hERG (Q12809 whole entry): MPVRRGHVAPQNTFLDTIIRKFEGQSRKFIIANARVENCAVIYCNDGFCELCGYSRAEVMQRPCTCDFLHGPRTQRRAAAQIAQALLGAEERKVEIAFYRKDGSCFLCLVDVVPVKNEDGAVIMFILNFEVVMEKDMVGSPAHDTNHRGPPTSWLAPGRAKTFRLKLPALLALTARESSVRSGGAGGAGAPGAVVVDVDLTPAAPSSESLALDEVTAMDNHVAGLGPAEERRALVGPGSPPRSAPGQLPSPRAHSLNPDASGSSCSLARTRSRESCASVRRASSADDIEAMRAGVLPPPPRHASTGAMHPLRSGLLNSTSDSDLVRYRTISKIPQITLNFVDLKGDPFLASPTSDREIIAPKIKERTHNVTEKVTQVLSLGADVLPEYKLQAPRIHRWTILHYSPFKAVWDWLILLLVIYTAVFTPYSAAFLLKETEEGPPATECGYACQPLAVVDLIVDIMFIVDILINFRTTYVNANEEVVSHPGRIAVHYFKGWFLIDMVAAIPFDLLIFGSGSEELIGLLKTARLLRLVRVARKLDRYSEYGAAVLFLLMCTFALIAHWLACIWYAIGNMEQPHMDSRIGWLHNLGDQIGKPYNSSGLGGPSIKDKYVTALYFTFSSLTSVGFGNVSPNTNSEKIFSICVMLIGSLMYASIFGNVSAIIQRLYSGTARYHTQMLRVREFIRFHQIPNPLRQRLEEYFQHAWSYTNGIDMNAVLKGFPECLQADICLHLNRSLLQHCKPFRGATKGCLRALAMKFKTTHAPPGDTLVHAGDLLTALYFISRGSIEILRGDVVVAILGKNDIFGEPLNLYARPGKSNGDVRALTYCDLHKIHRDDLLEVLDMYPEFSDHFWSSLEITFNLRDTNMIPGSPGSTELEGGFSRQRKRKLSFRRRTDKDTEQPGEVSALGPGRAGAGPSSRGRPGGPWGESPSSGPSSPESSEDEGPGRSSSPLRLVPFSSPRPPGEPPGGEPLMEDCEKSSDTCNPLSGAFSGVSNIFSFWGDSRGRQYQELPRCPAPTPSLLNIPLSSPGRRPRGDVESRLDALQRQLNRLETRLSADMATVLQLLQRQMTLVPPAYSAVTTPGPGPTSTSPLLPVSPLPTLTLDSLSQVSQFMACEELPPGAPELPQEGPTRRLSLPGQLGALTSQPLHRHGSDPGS
Procedure: An automated whole cell patch-clamp system (QPATCH® 16) is used to record outward potassium currents from a single cell. The assay employs CHO-K1 (Chinese Hamster Ovary) cells stably transfected with human hERG cDNA. The cells are harvested by trypsinization and maintained in serum-free medium at room temperature before recording. The cells are washed and re-suspended in the extracellular solution before being applied to the automated patch-clamp sites. The test solutions are prepared in the aqueous extracellular solution (137 mM NaCl, 4 mM KCl, 1.8 mM CaCl2), 1 mM MgCl2, 10 mM D(+)-Glucose, 10 mM HEPES, pH adjusted to 7.4 with NaOH) on the day of patch-clamp assay. Seven concentrations (0.03, 0.1, 0.3, 1, 3, 10, and 30 μM) of the test compound are used to determine IC50. The aqueous intracellular solution contains 130 mM KCl, 10 mM NaCl, 1 mM MgCl2, 10 mM EGTA, 5 mM MgATP, and 10 mM HEPES (pH adjusted to 7.2 with KOH).
After whole cell configuration is achieved, the cell is held at −80 mV. A 50 ms pulse to −40 mV is delivered to measure the leaking current, which is subtracted from the tail current on-line. Then the cell is depolarized to +20 mV for 2 seconds, followed by a 1 second pulse to −40 mV to reveal the hERG tail current. This paradigm is delivered once every 5 seconds to monitor the current amplitude. The assay is conducted at room temperature. The extracellular solution (control) is applied first and the cell is stabilized in the solution for 5 minutes. Then the test compound is applied from low to high concentrations sequentially on the same cell. The cells are incubated with each test concentration for 5 minutes. A reference compound E-4031 (N-(4-(1-(2-(6-methylpyridin-2-yl)ethyl)piperidine-4-carbonyl)phenyl)methanesulfonamide) is tested concurrently at multiple concentrations to obtain an IC50 value. The percent inhibition of hERG channel is calculated by comparing the tail current amplitude before and after application of the compound (the current difference is normalized to the control).

conscious beagle dogs = test: Effects on the cardiovascular system using telemetry in conscious beagle dogs; type: in vivo, dog; settings: single oral gavage doses 30, 100 and 300 mg/kg, compared to vehicle
Excerpt: The beagle dogs are equipped with telemetry devices from DSI PHYSIOTEL® Digital L21 transmitter implants according to the appropriate Charles River Laboratories, Montreal, QC Standard Operating Procedure (TB 12-04-06). The biopotential leads are placed in a modified lead II configuration. A minimum acclimation period of 6 days is allowed between animal arrival and the start of the surgical implantation of the telemetry devices in order to accustom the animals to the laboratory environment. A minimum recovery period of 4 weeks is allowed between surgeries and the start of treatment. […]
The parameters monitored include: heart rate derived from blood pressure, left ventricular pressure (LVP), and electrocardiogram waveforms; LVP (peak systolic and end-diastolic LVP and max positive/negative dP/dt values); electrocardiogram (PR interval (PR), RR variability (RR″), QRS complex (QRS), QT intervals, and QTcv calculated using the Van de Water equation QTcv=QT−87(60/HR−1)); and body temperature.
Marking of ECG segments is conducted using ECG Pattern Recognition software. A library for each animal is constructed of representative cycles from both the day and night cycle and is applied across monitoring occasions to ensure appropriate marking for quantitative assessments, in accordance with the appropriate Charles River Laboratories, Montreal, QC. […]

6-OHDA rat model = test: 6-Hydroxydopamine (6-OHDA) rat model of Parkinson's disease, locomotor activity; type: in vivo
Procedure: Compounds that improve motor activity are considered promising as potential therapies for Parkinson's disease. Rats of the 6-OHDA model of Parkinson's disease received bilateral injections of 6-OHDA into the striatum and coordinates Anterior-Posterior (AP): Medial-Lateral (ML): Dorsal-Ventral (DV), 1±3, −5 mm relative to Bregma under anaesthesia. Rats were tested for locomotor activity at least 28 days later.
Locomotor activity was measured in an open field arena covered in an array of infrared beams. Beam breaks by the animals were processed using AMLOGGER software to monitor activity.

Sequence of GPR6 receptor expressed in CHO-K1 cells (P46095 whole entry): as the sequence (P46095 whole entry) above

Structure (SMILES) | pEC50 [1] | Ki (human GPR6) [nM] | IC50 (human hERG) [nM] | safety margin relative to inhibition of hERG (human hERG) | arterial blood pressures, contractility, P-R interval, QRS complex, QT interval durations (conscious beagle dogs) | locomotor activity (6-OHDA rat model; 5 mg/kg and 10 mg/kg, compared to vehicle, after 50 minutes, FIG. 1) | locomotor activity (6-OHDA rat model; 10 mg/kg dose) | hERG inhibition potency compared with Compound A (human hERG; comparison in words)
CC(=O)N1CCc2nc(N3CCC(Oc4ccc(F)cc4F)CC3)c(N[C@H]3CCOC3)nc2C1 [Compound A, (S)-1-(2-(4-(2,4-difluorophenoxy)piperidin-1-yl)-3-((tetrahydrofuran-3-yl)amino)-7,8-dihydropyrido[3,4-b]pyrazin-6(5H)-yl)ethan-1-one, reference compound] | 7.2 | 6 | 505 | suboptimal safety margin |  |  |  | 
CC(=O)N1CCc2nc(N3CCC(Oc4ccc(F)cc4F)CC3)c(N[C@@H]3CCOC3)nc2C1 [Formula 1, (R)-1-(2-(4-(2,4-difluorophenoxy)piperidin-1-yl)-3-((tetrahydrofuran-3-yl)amino)-7,8-dihydropyrido[3,4-b]pyrazin-6(5H)-yl)ethan-1-one] | 7.2 | 5.5 | 1970 | improved SM-free | No changes are observed | dose dependent improvement in locomotor activity | significant increase in activity | significantly less potent inhibitor of hERG than Compound A
